In this test the test system is AMPK. Briefly: AMPK activating activity in HK-2 cells treated with tunicamycin, Western blot. It counts as cell-based, human. The conditions noted are these: tunicamycin 5 μg/ml with or without sephin1 1 μM, 24 hours, compared to untreated cells. The procedure:
The HK-2 cell line is a proximal tubular cell line derived from normal kidney immortalized by transduction with human papilloma virus 16 (HPV-16) E6/E7 genes.
HK-2 cells were seeded in a six well plate at a cell density of 7×10^4 cells per well 24 hours prior to the start of the study (T−24). […] 24 hours later (at T24) cells were recovered and protein was analyzed by Western blot analysis.

tunicamycin: the “AMPK levels (AMPK/GAPDH)” value is on record as “reduced”.

(Values after US20260240795A1 (KYOTO P[…] UNIVERSITY CORPORATION, priority 2023, published 2026).)
